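Results reflect a 48-hour exposure of cells in 96-well plates to compound at five concentrations. GI50: concentration for 50% inhibition of growth.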 Active and inactive are the calls of the source. Cut-off read from the data, not from the text of the source: active = GI50 up to about 1.1 µM and inactive = higher.
Key:
Experiment in all cases: growth of human tumour cells (NCI), 48 h
[1] = system: NCI-H460
[2] = system: Hs-578T
[3] = system: SR
[4] = system: ACHN
[5] = system: MCF7
[6] = system: RXF 393
[7] = system: MDA-MB-231
[8] = system: KM12
[9] = system: UACC-257
[10] = system: UO-31
[11] = system: HCT-15
[12] = system: 786-0
[13] = system: A498
[14] = system: UACC-62
[15] = system: HOP-92
[16] = system: NCI-H522
[17] = system: OVCAR-5
[18] = system: OVCAR-3
[19] = system: MOLT-4
[20] = system: PC-3
[21] = system: SF-295
[22] = system: DU-145
[23] = system: A549
[24] = system: TK-10
[25] = system: SNB-75
[26] = system: SK-MEL-28
[27] = system: IGROV-1
[28] = system: NCI-H23
[29] = system: NCI/ADR-RES
[30] = system: CCRF-CEM
[31] = system: SNB-19
[32] = system: MDA-MB-435
[33] = system: EKVX
[34] = system: BT-549
[35] = system: Malme-3M
[36] = system: OVCAR-4
[37] = system: OVCAR-8
[38] = system: SK-MEL-5
[39] = system: HT-29
[40] = system: U-251
[41] = system: LOX IMVI
[42] = system: CAKI-1
[43] = system: MDA-N
[44] = system: SF-539
[45] = system: RPMI-8226
[46] = system: SW-620
[47] = system: SK-OV-3
[48] = system: SK-MEL-2
[49] = system: NCI-H226
[50] = system: HCT-116
[51] = system: K562
[52] = system: M14
[53] = system: HCC 2998
[54] = system: T47D
[55] = system: COLO 205
[56] = system: HL-60
[57] = system: SN12C
[58] = system: SF-268
[59] = system: HOP-62

With `CN(CCO)CC(=O)CC(O)(C(F)(F)F)C(F)(F)F` as the compound, how does the GI50 [1] read?
Its GI50 is 27.5 µM (inactive).

What about the GI50 [2] of the same compound?
The GI50 was 21.3 µM (inactive).

What about the GI50 [3] of the same compound?
The GI50 was 40.8 µM (inactive).

What about the GI50 [4] of the same compound?
The GI50 was 27.7 µM (inactive).

What about the GI50 [5] of the same compound?
The GI50 was 46.2 µM (inactive).

What about the GI50 [6] of the same compound?
The GI50 was 19.5 µM (inactive).

And the GI50 [7]?
The GI50 was 29.7 µM (inactive).

And the GI50 [8]?
The GI50 was 39.8 µM (inactive).

What about the GI50 [9] of the same compound?
Its GI50 is 37.6 µM (inactive).

What about the GI50 [10] of the same compound?
The GI50 was 39.1 µM (inactive).

What about the GI50 [11] of the same compound?
The GI50 was 33.3 µM.

What about the GI50 [12] of the same compound?
Its GI50 is 32.6 µM (inactive).

And the GI50 [13]?
The GI50 was 44.6 µM (inactive).

And the GI50 [14]?
The GI50 was 35.6 µM (inactive).

And the GI50 [15]?
Its GI50 is 22.5 µM (inactive).

What about the GI50 [16] of the same compound?
Its GI50 is 40.2 µM (inactive).

What about the GI50 [17] of the same compound?
The GI50 was 52.5 µM (inactive).

What about the GI50 [18] of the same compound?
Its GI50 is 26.5 µM (inactive).

And the GI50 [19]?
Its GI50 is 52.6 µM (inactive).

And the GI50 [20]?
Its GI50 is 26.2 µM (inactive).

And the GI50 [21]?
The GI50 was 30 µM (inactive).

What about the GI50 [22] of the same compound?
Its GI50 is 42.7 µM (inactive).

And the GI50 [23]?
The GI50 was 30.4 µM (inactive).

What about the GI50 [24] of the same compound?
The GI50 was 35.4 µM (inactive).

What about the GI50 [25] of the same compound?
The GI50 was 14.5 µM (inactive).

What about the GI50 [26] of the same compound?
Its GI50 is 42.6 µM (inactive).

And the GI50 [27]?
Its GI50 is 43.2 µM (inactive).

And the GI50 [28]?
Its GI50 is 23.6 µM (inactive).

And the GI50 [29]?
The GI50 was 41 µM (inactive).

What about the GI50 [30] of the same compound?
The GI50 was 32.1 µM (inactive).

And the GI50 [31]?
Its GI50 is 41.4 µM (inactive).

And the GI50 [32]?
The GI50 was 36 µM (inactive).

What about the GI50 [33] of the same compound?
Its GI50 is 31.2 µM (inactive).

And the GI50 [34]?
Its GI50 is 43.7 µM (inactive).

What about the GI50 [35] of the same compound?
The GI50 was 34.7 µM (inactive).

And the GI50 [36]?
Its GI50 is 50 µM (inactive).

And the GI50 [37]?
Its GI50 is 41.3 µM (inactive).

And the GI50 [38]?
The GI50 was 16.3 µM (inactive).

And the GI50 [39]?
The GI50 was 30.7 µM (inactive).

And the GI50 [40]?
The GI50 was 28.6 µM (inactive).

What about the GI50 [41] of the same compound?
Its GI50 is 31.4 µM (inactive).

What about the GI50 [42] of the same compound?
The GI50 was 30.1 µM (inactive).

And the GI50 [43]?
Its GI50 is 32.1 µM (inactive).

And the GI50 [44]?
Its GI50 is 34.7 µM (inactive).

What about the GI50 [45] of the same compound?
The GI50 was 32.1 µM (inactive).

And the GI50 [46]?
The GI50 was 34.9 µM (inactive).

What about the GI50 [47] of the same compound?
The GI50 was 26.4 µM (inactive).

What about the GI50 [48] of the same compound?
Its GI50 is 33 µM (inactive).

And the GI50 [49]?
Its GI50 is 36.3 µM (inactive).

What about the GI50 [50] of the same compound?
The GI50 was 30.8 µM (inactive).

And the GI50 [51]?
Its GI50 is 42.4 µM (inactive).

What about the GI50 [52] of the same compound?
The GI50 was 32.5 µM (inactive).

And the GI50 [53]?
Its GI50 is 56.2 µM (inactive).

And the GI50 [54]?
The GI50 was 28.4 µM (inactive).

And the GI50 [55]?
The GI50 was 35.3 µM (inactive).

What about the GI50 [56] of the same compound?
The GI50 was 26.4 µM (inactive).

With `CC1=C(SCCO)C(=O)c2ccccc2C1=O` as the compound, how does the GI50 [1] read?
Its GI50 is 13.2 µM (inactive).

What about the GI50 [2] of the same compound?
The GI50 was 12.2 µM (inactive).

What about the GI50 [3] of the same compound?
Its GI50 is 3.21 µM (inactive).

What about the GI50 [4] of the same compound?
Its GI50 is 3.52 µM (inactive).

What about the GI50 [5] of the same compound?
The GI50 was 3.02 µM (inactive).

And the GI50 [6]?
The GI50 was 13.4 µM (inactive).

What about the GI50 [7] of the same compound?
Its GI50 is 13.7 µM (inactive).

And the GI50 [8]?
The GI50 was 13.6 µM (inactive).

And the GI50 [9]?
The GI50 was 13 µM (inactive).

And the GI50 [10]?
The GI50 was 8.63 µM (inactive).

What about the GI50 [57] of the same compound?
Its GI50 is 15.6 µM (inactive).

What about the GI50 [11] of the same compound?
The GI50 was 7.35 µM.

And the GI50 [13]?
Its GI50 is 16.9 µM (inactive).

What about the GI50 [14] of the same compound?
The GI50 was 14.9 µM (inactive).

What about the GI50 [15] of the same compound?
The GI50 was 1.7 µM (inactive).

And the GI50 [16]?
The GI50 was 3.72 µM (inactive).

What about the GI50 [17] of the same compound?
The GI50 was 17.9 µM (inactive).

What about the GI50 [18] of the same compound?
Its GI50 is 2.82 µM (inactive).

And the GI50 [19]?
The GI50 was 0.324 µM (active).

What about the GI50 [20] of the same compound?
The GI50 was 11.4 µM (inactive).

And the GI50 [21]?
The GI50 was 17.2 µM (inactive).

What about the GI50 [22] of the same compound?
Its GI50 is 16 µM (inactive).

What about the GI50 [23] of the same compound?
Its GI50 is 15.9 µM (inactive).

And the GI50 [24]?
Its GI50 is 16.8 µM (inactive).

And the GI50 [25]?
Its GI50 is 16.5 µM (inactive).

And the GI50 [26]?
Its GI50 is 11 µM (inactive).

What about the GI50 [27] of the same compound?
The GI50 was 14.2 µM (inactive).

And the GI50 [28]?
Its GI50 is 12.6 µM (inactive).

What about the GI50 [29] of the same compound?
Its GI50 is 14.3 µM (inactive).

What about the GI50 [30] of the same compound?
Its GI50 is 1.82 µM (inactive).

And the GI50 [31]?
The GI50 was 25.4 µM (inactive).

And the GI50 [32]?
Its GI50 is 11.6 µM (inactive).

What about the GI50 [33] of the same compound?
The GI50 was 8.41 µM (inactive).

What about the GI50 [34] of the same compound?
Its GI50 is 17.8 µM (inactive).

What about the GI50 [35] of the same compound?
Its GI50 is 14.2 µM (inactive).

And the GI50 [36]?
Its GI50 is 3.31 µM (inactive).

And the GI50 [37]?
The GI50 was 12.4 µM (inactive).

And the GI50 [38]?
Its GI50 is 13.3 µM (inactive).

And the GI50 [39]?
Its GI50 is 19.3 µM (inactive).

What about the GI50 [40] of the same compound?
The GI50 was 13.3 µM (inactive).

And the GI50 [41]?
Its GI50 is 12.1 µM (inactive).

And the GI50 [42]?
The GI50 was 14.9 µM (inactive).

What about the GI50 [43] of the same compound?
The GI50 was 5.09 µM (inactive).

And the GI50 [44]?
Its GI50 is 12.1 µM (inactive).

What about the GI50 [45] of the same compound?
The GI50 was 2.55 µM (inactive).

What about the GI50 [46] of the same compound?
Its GI50 is 12.2 µM (inactive).

What about the GI50 [47] of the same compound?
The GI50 was 16 µM (inactive).

What about the GI50 [48] of the same compound?
Its GI50 is 11.7 µM (inactive).

And the GI50 [58]?
Its GI50 is 15.5 µM (inactive).

And the GI50 [49]?
The GI50 was 14.7 µM (inactive).

And the GI50 [50]?
Its GI50 is 4.76 µM (inactive).

And the GI50 [51]?
The GI50 was 3.18 µM (inactive).

And the GI50 [52]?
The GI50 was 14.3 µM (inactive).

What about the GI50 [53] of the same compound?
The GI50 was 16.6 µM (inactive).

And the GI50 [59]?
Its GI50 is 15.9 µM (inactive).

What about the GI50 [54] of the same compound?
Its GI50 is 3.21 µM (inactive).

What about the GI50 [55] of the same compound?
The GI50 was 11.1 µM (inactive).

What about the GI50 [56] of the same compound?
Its GI50 is 0.55 µM (active).
